From patent publication US20100204313A1, “Modulation of nerve pain activity by resiniferatoxin and uses thereof” (priority 2007, published 2010)
Entries after “also recorded” stand apart in the source; their conditions may differ.

Key:
guinea pig airways = details: intravenous 221 mg/kg or intragastric 790 mg/kg; capsazepine-sensitive; cited from earlier work
TRPV1 [1] = biological target: T1, TRPV1 (Rattus norvegicus, UniProt O35433); details: in vitro, cited from earlier work
nocifensive behaviors = details: 20% ethanol 1.6 gm/kg 3 times a day for 3 days; current 2, 5 and 10 mA; vs saline TNBS rats; P<0.001
Experimental: Increasing amounts of electrical current were applied to the pancreas through a previously implanted electrode and the total number of nocifensive behaviors was recorded.
Control TNBS rats received an equal volume of normal saline. The next day the rats were tested for their behavioral response for pain by administering successive application of electrical current at 2, 5 and 10 mA for 5 minutes through a pair of electrodes implanted in the pancreas at the time of TNBS administration.

gastropancreatic nerves [2] = system: gastropancreatic nerves
Experimental: Capsaicin dose was 0.05 mg/0.3 ml in 40% ethanol for each group (n=8 rats/group).
Transient receptor potential vanilloid type-1 activation on the gastric side of gastropancreatic nerves can trigger axonal reflexes. Based on the known interaction between alcohol and transient receptor potential vanilloid type-1, it is possible that intragastric ethanol might also stimulate these nerves. […] At the same time, there was an intra-pancreatic canula in place and recording electrodes positioned around nerve fibers in the greater splanchnic nerve that were responsive to mechanical stimulation of the pancreas. Five minutes after intragastric ethanol, capsaicin was infused into the pancreatic duct.

guinea pig bronchi = details: ex-vivo; sensitive to TRPV1 and tachykinin receptor blockade; cited from earlier work
TRPV1 [3] = details: various tissues, capsazepine-sensitive; cited from earlier work
TRPV1 [4] = biological target: T2, TRPV1 (Mus musculus, UniProt Q704Y3); details: mice, cited from earlier work
T2 construct: capsazepine, a selective TRPV1 antagonist, can reduce cerulein-induced pancreatitis in mice; host or cells: living mice, cerulein-induced pancreatitis

TRPV1 [5] = biological target: T1, TRPV1; set-up: host or cells: living rats (sensory neurons), TNBS chronic pancreatitis model; details: systemic administration, chronic pancreatitis; cited from earlier work
nociceptors = details: functional denervation of the pancreas; cited from earlier work
gastric emptying = assay: Gastric emptying of solid foods after local instillation; format: in vivo, rat; details: 100 nM/kg, vs control
Experimental: These experiments were done in male rats. Resiniferatoxin was instilled at 100 nM/kg body weight, 0.6 microgm/ml, into either the stomach or jejunum. Controls received saline in the stomach. Five weeks later gastric emptying of solid foods was measured. […] The combination of faster emptying and anti-nauseant effect makes it a very appropriate treatment for gastroparesis.

afferent nerves = details: desensitization of afferent nerves; cited from earlier work
gastropancreatic nerves [6] = assay: Afferent nerve signaling to colorectal distention after intragastric resiniferatoxin; format: in vivo; details: rat stomach, 4 hours after intragastric resiniferatoxin vs baseline
Experimental: The top row represents the baseline response. Note the near complete absence of responses 4 hours after intragastric resiniferatoxin.
Resiniferatoxin is the principal active ingredient in the classic drug Euphorbium, the air-dried latex (resin) of the cactus-like plant Euphorbia resinifera. It is an ultra-potent analog of capsaicin and local application causes desensitization without prior excitation of afferent nerves that lasts for several weeks (Neubert et al, 2003; Kissin et al, 2002; Xu et al, 1997; Craft et al, 1995; Avelino et al, 1999; Acs et al, 1997; Abdel-Salam et al, 1994).

[7] = system: transient receptor potential vanilloid type-1 on gastric branches of dichotomous gastropancreatic nerves; assay: Pancreatic edema (water content) after intragastric infusion with pyloric ligation; format: in vivo; details: intragastric infusion of 1.2 ml of 1.6 μM after pyloric ligation; pancreas harvested 30 minutes later
Experimental: Capsaicin was infused into the stomach after pyloric ligation and 30 minutes later the pancreas was harvested and water content was measured.
Next, the functional correlate of this anatomical convergence was determined. It was hypothesized that intragastric capsaicin will activate transient receptor potential vanilloid type-1 on gastric branches of dichotomous gastropancreatic nerves and via an axonal reflex result in edema of the pancreas. After pyloric ligation, intragastric infusion of 1.2 ml of 1.6 μM capsaicin was followed 30 minutes later by harvesting of the pancreas and measurement of water content.

T1 sequence (O35433 whole entry): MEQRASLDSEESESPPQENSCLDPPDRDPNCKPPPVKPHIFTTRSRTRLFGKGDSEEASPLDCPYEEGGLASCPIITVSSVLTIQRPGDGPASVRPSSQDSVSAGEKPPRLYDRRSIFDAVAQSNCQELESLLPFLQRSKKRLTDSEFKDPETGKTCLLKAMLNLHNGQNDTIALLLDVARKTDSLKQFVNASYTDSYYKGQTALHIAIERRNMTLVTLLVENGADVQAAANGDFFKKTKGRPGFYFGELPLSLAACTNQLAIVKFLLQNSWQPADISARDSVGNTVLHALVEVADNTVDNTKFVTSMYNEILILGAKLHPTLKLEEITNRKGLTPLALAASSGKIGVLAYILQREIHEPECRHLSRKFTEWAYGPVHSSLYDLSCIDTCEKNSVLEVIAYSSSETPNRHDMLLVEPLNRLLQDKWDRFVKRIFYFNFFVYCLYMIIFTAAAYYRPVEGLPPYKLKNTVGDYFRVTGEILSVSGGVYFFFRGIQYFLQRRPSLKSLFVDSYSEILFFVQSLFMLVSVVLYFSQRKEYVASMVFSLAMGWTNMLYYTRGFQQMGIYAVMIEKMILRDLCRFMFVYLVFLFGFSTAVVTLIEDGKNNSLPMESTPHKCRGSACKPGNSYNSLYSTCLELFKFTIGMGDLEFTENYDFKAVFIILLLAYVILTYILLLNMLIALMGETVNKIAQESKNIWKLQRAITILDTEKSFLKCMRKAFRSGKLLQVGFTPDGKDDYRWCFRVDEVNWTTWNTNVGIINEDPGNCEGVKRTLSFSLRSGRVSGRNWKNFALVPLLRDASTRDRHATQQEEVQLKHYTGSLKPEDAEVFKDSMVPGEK
T2 sequence (Q704Y3 whole entry): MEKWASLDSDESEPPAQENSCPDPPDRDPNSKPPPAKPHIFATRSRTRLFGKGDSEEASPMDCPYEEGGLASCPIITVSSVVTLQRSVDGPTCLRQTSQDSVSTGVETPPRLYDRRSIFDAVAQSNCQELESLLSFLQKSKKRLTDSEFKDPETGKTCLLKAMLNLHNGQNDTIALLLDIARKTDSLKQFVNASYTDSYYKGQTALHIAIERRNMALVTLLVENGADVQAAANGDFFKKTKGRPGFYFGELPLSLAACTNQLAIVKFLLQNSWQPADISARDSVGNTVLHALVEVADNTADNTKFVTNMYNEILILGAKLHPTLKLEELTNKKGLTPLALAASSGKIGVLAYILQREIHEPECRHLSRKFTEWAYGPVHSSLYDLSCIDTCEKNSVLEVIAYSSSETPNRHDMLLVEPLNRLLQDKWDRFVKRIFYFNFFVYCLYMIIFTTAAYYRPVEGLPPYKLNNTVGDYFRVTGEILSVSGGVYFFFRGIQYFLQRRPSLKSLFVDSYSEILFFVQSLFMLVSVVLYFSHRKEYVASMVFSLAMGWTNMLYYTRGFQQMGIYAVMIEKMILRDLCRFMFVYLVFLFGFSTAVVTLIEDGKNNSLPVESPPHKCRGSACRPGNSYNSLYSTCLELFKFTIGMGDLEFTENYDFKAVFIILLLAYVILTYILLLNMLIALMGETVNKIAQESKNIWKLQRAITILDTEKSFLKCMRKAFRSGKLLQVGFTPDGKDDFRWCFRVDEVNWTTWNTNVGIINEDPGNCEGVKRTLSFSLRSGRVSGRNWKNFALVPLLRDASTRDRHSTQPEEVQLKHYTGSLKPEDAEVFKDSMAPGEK

CCO [ethanol]
broncho-constriction (guinea pig airways): caused broncho-constriction
plasma extravasation in the airways (guinea pig airways): increased plasma extravasation
TRPV1 stimulation, capsazepine-sensitive calcium response (TRPV1 [1]; trigeminal and dorsal root ganglia neurons): directly stimulate
sensitization of dorsal root ganglia neurons to the effects of capsaicin (TRPV1 [1]): sensitize
number of nocifensive behaviors (nocifensive behaviors): increased the number of nocifensive behaviors significantly
multi-unit spike potentials after intra-pancreatic capsaicin (gastropancreatic nerves [2]; intragastric ethanol five minutes before capsaicin into pancreatic duct, vs intragastric saline, P<0.05, n=8 rats/group): significant increase
gastropancreatic nerve activity, ethanol by itself (gastropancreatic nerves [2]; intragastric via orogastric lavage after pyloric ligation, before capsaicin): did not increase
contractions of bronchi (guinea pig bronchi): caused contractions
release of substance P (TRPV1 [3]): induce the release

Oc1cc2c(cc1O)CN(C(=S)NCCc1ccc(Cl)cc1)CCC2 [capsazepine]
NK1R endocytosis in acinar cells (surrogate marker for SP release) (TRPV1 [4]; cerulein-induced pancreatitis): reduction
cerulein induced pancreatitis (TRPV1 [4]): attenuate

COc1cccc(NC(=O)/C=C/c2ccc(Cl)cc2)c1 [SB-366791]
pancreatic pain behavioral response (TRPV1 [5]): markedly reduced

C=C(C)[C@]12C[C@@H](C)[C@@]34O[C@](Cc5ccccc5)(O[C@@H]1[C@@H]3C=C(COC(=O)Cc1ccc(O)c(OC)c1)C[C@]1(O)C(=O)C(C)=C[C@@H]41)O2 [resiniferatoxin]
acute experimental pancreatitis (nociceptors): significant attenuation
percentage of gastric emptying after 3 hours (gastric emptying; instilled into the jejunum five weeks prior, P=0.04, n=4): significant increase
percentage of gastric emptying after 3 hours (gastric emptying; instilled into the stomach five weeks prior, P=0.01, n=4 rats): significant increase
potency relative to capsaicin (afferent nerves): 200 times
afferent nerve signaling to colorectal distention (gastropancreatic nerves [6]): near complete attenuation; also recorded: nearly complete attenuation

COc1cc(CNC(=O)CCCC/C=C/C(C)C)ccc1O [capsaicin]
acute experimental pancreatitis (nociceptors): significant attenuation
pancreatic edema (water content) [7]: causes pancreatic edema
